{"source": "PubChem BioAssay AID1996", "data": [{"settings": "buffer; pH 7.4; 200.0 µM", "units": {"solubility kinetic": "µg/mL"}, "values": [{"smiles": "CCOc1ccc(CN(C)C(C)C(=O)NCc2ccccc2)cc1", "note": "(stereo not given)", "solubility kinetic": "> 49"}, {"smiles": "COc1ccc(Cl)cc1S(=O)(=O)Nc1ccc(Cl)cn1", "solubility kinetic": 1.3}, {"smiles": "CCN(CC)c1ccc(CNCc2cccs2)cc1.Cl", "solubility kinetic": 44.2}, {"smiles": "COc1ccccc1Cn1c(=S)[nH]c2ccccc2c1=O", "solubility kinetic": 0.5}, {"smiles": "Cl.O=S(=O)(NCCN1CCN(S(=O)(=O)c2ccccc2F)CC1)c1ccccc1F", "solubility kinetic": "> 72.3"}, {"smiles": "O=Cc1ccc(OCc2cn3ccccc3n2)cc1", "solubility kinetic": "> 37.8"}, {"smiles": "Cc1cccc(N2CCN(C(=O)CNC(=O)Cc3ccccc3)CC2)c1C", "solubility kinetic": "> 54.8"}, {"smiles": "CCCCCn1c(=O)c(C(=O)Nc2ccccc2N)c(O)c2ccccc21", "solubility kinetic": "< 0.3"}, {"smiles": "Cn1cccc1C(=O)OCc1cc(-c2ccco2)on1", "solubility kinetic": 13.8}, {"smiles": "CCOC(=O)c1cnc2c(ccc3ccccc32)c1Cl", "solubility kinetic": "< 0.6"}, {"smiles": "Cc1ccc(NC(=O)CN2CCOCC2)cc1S(=O)(=O)N1CCCCC1", "solubility kinetic": "> 57.2"}, {"smiles": "O=C(COC(=O)c1ccc2c(c1)OCCO2)Nc1ccc(F)cc1F", "solubility kinetic": 6.9}, {"smiles": "Cc1ccc(C(=O)OCC(=O)N2CCCCCC2)cc1S(=O)(=O)N1CCOCC1", "solubility kinetic": "> 63.7"}, {"smiles": "COc1ccc(OC)c(NC(=O)c2nc(-c3ccccc3)oc2C)c1", "solubility kinetic": 3.1}, {"smiles": "Brc1ccc(-c2cn3ccccc3n2)cc1", "solubility kinetic": 0.8}, {"smiles": "Cn1ccnc1SCC(=O)c1ccc(F)cc1", "solubility kinetic": 32.3}, {"smiles": "O=C(CCSCc1ccccc1)Nc1ccc2c(c1)OCCO2", "solubility kinetic": 33.8}, {"smiles": "Cc1ccc(NC(=O)COc2cccc3c2OC(C)(C)C3)c(O)c1", "solubility kinetic": 6.8}, {"smiles": "O=C(NCc1ccccc1Cl)C1CCN(c2cnccn2)CC1", "solubility kinetic": "> 49.6"}, {"smiles": "O=C(NC(=O)c1ccccc1)Nc1ccccc1", "solubility kinetic": 1.2}, {"smiles": "CCCc1cc(=O)[nH]c(SCC(=O)Nc2c(C)n(C)n(-c3ccccc3)c2=O)n1", "solubility kinetic": "> 62"}, {"smiles": "O=C(COC(=O)/C=C/c1ccc(Cl)cc1)NC1CCCC1", "solubility kinetic": 3.5}, {"smiles": "Cc1ccc(NC(=O)c2cnccn2)cc1S(=O)(=O)N1CCCCCC1", "solubility kinetic": 5.4}, {"smiles": "COc1cccc(NC(=O)c2ccccc2NC(=O)c2ccncc2)c1", "solubility kinetic": 29.1}, {"smiles": "Fc1ccc(CNc2ccccn2)cc1", "solubility kinetic": 24.3}, {"smiles": "CC(=O)Oc1ccc(C(=O)N2c3ccccc3NC(=O)C2C)cc1", "note": "(stereo not given)", "solubility kinetic": "> 48.7"}, {"smiles": "COc1ccc2[nH]c(C(=O)N(Cc3ccccn3)Cc3ccccn3)cc2c1", "solubility kinetic": "> 55.9"}, {"smiles": "COc1ccc(Br)cc1/C=C(\\C(=O)O)c1ccc(S(=O)(=O)N2CCCC2)s1", "solubility kinetic": "> 70.9"}, {"smiles": "CN(c1ccccc1)S(=O)(=O)c1ccc2[nH]c(=O)[nH]c2c1", "solubility kinetic": 16.6}, {"smiles": "O=C(CCCCN1CCCCC1)c1ccccc1", "solubility kinetic": 31.8}, {"smiles": "COc1ccc(/C=C/C(=O)OCC(=O)NC(C)CCc2ccccc2)cc1OC", "note": "(stereo not given)", "solubility kinetic": 23.9}, {"smiles": "CCCC(=O)Nc1ccccc1NC(=O)c1ccc2c(c1)OCO2", "solubility kinetic": "> 49"}, {"smiles": "COC(=O)c1c(C)noc1-c1ccc(Cl)cc1", "solubility kinetic": 1.6}, {"smiles": "COc1ccc(CN2C(=O)c3cccc4cccc2c34)cc1F", "solubility kinetic": 9.8}, {"smiles": "CCOC(=O)c1cc(C)nc(S(C)(=O)=O)c1C#N", "solubility kinetic": 28.3}, {"smiles": "Cc1ccc(NC(=O)COC(=O)Cc2ccc(Br)cc2)cc1S(=O)(=O)N1CCOCC1", "solubility kinetic": 12.4}, {"smiles": "CNC(=S)N(CCc1c(C)[nH]c2ccccc12)Cc1ccco1", "solubility kinetic": 1.5}, {"smiles": "CCOC(=O)c1cc(C#N)c(Nc2ccc(C)cc2)nc1C(F)(F)F", "solubility kinetic": "< 0.2"}, {"smiles": "O=c1oc2ccccc2n1Cc1cccc(C(F)(F)F)c1", "solubility kinetic": 2.2}, {"smiles": "CC(=O)c1c(C)[nH]c(C(=O)COC(=O)c2cccs2)c1C", "solubility kinetic": 6.9}, {"smiles": "C=CCNC(=S)N1CCN(C2CCCCC2)CC1", "solubility kinetic": "> 40.1"}, {"smiles": "COC(=O)CNC(=O)CSc1ccccn1", "solubility kinetic": "> 36"}, {"smiles": "NC(=O)CSc1nc2cc(S(=O)(=O)N3CCOCC3)ccc2o1", "solubility kinetic": "> 53.6"}, {"smiles": "CCc1ccc(NC(=O)CCC(=O)c2ccccc2)cc1", "solubility kinetic": 7.5}, {"smiles": "COc1ccccc1NC(=O)Nc1ccc2c(c1)CCC2", "solubility kinetic": "< 0.3"}, {"smiles": "CCNC(=O)c1ccccc1NC(=O)C1CC(=O)N(C(C)C)C1", "note": "(stereo not given)", "solubility kinetic": "> 47.6"}, {"smiles": "Cc1nc2c(=O)n(-c3ccc(F)cc3F)nc(C)c2s1", "solubility kinetic": "> 44"}, {"smiles": "Cc1ccc(CNS(=O)(=O)c2c(C)n(C)c(=O)n(C)c2=O)cc1", "solubility kinetic": "> 50.6"}, {"smiles": "CCc1sc(C(=O)NCc2ccccc2)cc1C", "solubility kinetic": 28.7}, {"smiles": "CCCNC(=S)N1CCC(NC(=O)c2ccc(C)cc2)CC1", "solubility kinetic": 7.5}, {"smiles": "O=C1c2ccc(Oc3ccc([N+](=O)[O-])cc3)cc2C(=O)N1CCCO", "solubility kinetic": 49}, {"smiles": "FC(F)(F)c1cnc2c(c1)[nH]c(=S)n2-c1ccc(Cl)cc1", "solubility kinetic": 3}, {"smiles": "CC(=O)N1CCN(S(=O)(=O)c2ccc(Cl)cc2F)CC1", "solubility kinetic": "> 48.1"}, {"smiles": "CSC(=Nc1ccccc1)C(C#N)c1nc2ccccc2[nH]1", "note": "(stereo not given)", "solubility kinetic": 0.3}, {"smiles": "CCCCN(CC)Cc1c(O)ccc2c(-c3ccccc3)cc(=O)oc12", "solubility kinetic": 36.1}, {"smiles": "Cc1ccc(-n2nc(-c3ccco3)cc2C(=O)O)cc1", "solubility kinetic": "> 40.2"}, {"smiles": "CCc1cc(C(=O)OC)c(NC(=O)c2ccoc2C)s1", "solubility kinetic": "< 0.6"}, {"smiles": "Br.COc1ccc(C(=O)CN2Cc3ccccc3C2=N)cc1", "solubility kinetic": "> 54.2"}, {"smiles": "CCn1cc(C(=O)NCc2ccccc2F)c(=O)c2ccc(C)nc21", "solubility kinetic": 2.9}, {"smiles": "O=C(NCCNc1ccccc1[N+](=O)[O-])c1cc(F)c(F)cc1Cl", "solubility kinetic": 1.2}]}]}
